Test results: publication PMC3816012 (Structure (London, England : 1993), 2013)

Target: IcmR-IcmQ (Legionella pneumophila, UniProt O54635)

## NC(=O)c1ccc[n+]([C@@H]2O[C@H](COP(=O)(O)OP(=O)(O)OC[C@H]3O[C@@H](n4cnc5c(N)ncnc54)[C@H](O)[C@@H]3O)[C@@H](O)[C@H]2O)c1 [NAD+]
  filter binding assay, 32P-labelled NAD+: A similar binding profile was observed for wild type IcmR-IcmQ complexes.
